{"source": "patent US10067120B2", "about": "“Use of acetylated tubulin as a biomarker of drug response to furazanobenzimidazoles” (Basilea Pharmaceutica AG, priority 2011, dated 2018)", "type_in_all_cases": "cell-based, human", "key": {"[1]": {"test_system": "A549 NSCLC cells", "test": "Immunofluorescent staining of microtubules (anti-alpha tubulin)", "conditions": "for Microtubule phenotype of mitotic or G2/M arrested cells: 24 hours, 50 nM BAL27862, 80 nM Compound B, 20 nM Compound C", "protocol": "(§1) A549 human non-small cell lung cancer (NSCLC, ATCC reference number CCL-185) cells, HeLa cervical cancer cells (ATCC reference number CCL-2) and SKBR3 breast carcinoma cells (ATCC reference number HTB-30) were seeded at densities of 50% on round microscope coverslips and cultured for 24 hours in RPMI-1640 containing 10% FCS (also referred to as FBS) at 37° C., 5% CO2. Compounds to be tested were dissolved in DMSO. The cell culture medium was replaced with medium containing the diluted compound(s) (paclitaxel, vinblastine, colchicine and nocodazole were purchased from Sigma-Aldrich) or vehicle. After treatment for the times indicated in the Brief Description of the Figures, coverslips were washed and cells were fixed in methanol/acetone (1:1) for 5 minutes at room temperature and subsequently incubated in blocking buffer (0.5% BSA and 0.1% TX-100 in PBS) for 30 minutes at room temperature. Specimens were then incubated with anti-alpha tubulin antibody (Sigma, 1:2000) for 1 hour at room temperature in blocking buffer. After several washing steps cells were incubated with AlexaFluor-488 goat-anti-mouse IgG (Molecular Probes, 1:3000) for 1 hour at room temperature followed by several washing steps with blocking buffer. Specimens were then mounted with ProLong Gold antifade (Molecular Probes) sealed with nail polish and examined with a Leica immunofluorescence microscope. Images were captured with a cooled CCD-camera and processed by ImageJ software."}, "[2]": {"test_system": "A549", "test": "Crystal Violet proliferation assay, BAL27862-resistant versus parental A549", "conditions": "for Resistance factor (ratio IC50 BAL27862-resistant cell line variant versus IC50 parental cell line): 72 hours, Crystal Violet", "protocol": "(§2) BAL27862-resistant sublines of human non-small cell lung cancer (H460 ATCC reference HTB-177; A549 ATCC reference CCL-185), ovarian cancer (SKOV3 ATCC reference HTB-77) and T-cell leukemia (Jurkat ATCC reference TIB-152) cell lines were generated by long-term selection in complete cell culture medium (RPMI-1640 containing 10% FBS; Sigma-Aldrich) by increasing BAL27862 concentrations in a stepwise fashion. […] The resistance factors were determined for the adherent cell lines H460, A549 and SKOV3 by measuring proliferation using the Crystal Violet assay, whereas for the suspension Jurkat cell line cell death was measured using FACS. The resistant sub lines were expanded at the highest tolerated BAL27862 concentration and subsequently frozen and stored in liquid nitrogen.\n(§3) A549 (2000 cells/well), H460 (1000 cells/well) and SKOV3 (2000 cells/well) cells were seeded in 96 well plates. […] After medium was removed, cells were fixed and stained by adding 50 μl Crystal Violet stain (0.2% Crystal Violet in 50% Methanol) per well. Plates were incubated for 1 hour at room temperature. Subsequently the stain was decanted and plates were washed 4 times with double-distilled water. Plates were air-dried for several hours. Stain was dissolved by adding 100 μl buffer (0.1 M Tris pH 7.5, 0.2% SDS, 20% Ethanol) per well and shaking the plates. Absorbance at 590 nm was measured using a SpectraMax M2e plate reader (Molecular Devices).\n(§4) Antiproliferative IC50 and cell death EC50 values were calculated from concentration response curves using GraphPad Prism software. Resistance factors were calculated as a ratio of the IC50 or EC50 in the resistant line variant versus the IC50 or EC50 in the parental line."}, "[3]": {"test_system": "H460", "test": "Crystal Violet proliferation assay, BAL27862-resistant versus parental H460", "conditions": "for Resistance factor (ratio IC50 BAL27862-resistant cell line variant versus IC50 parental cell line): 72 hours, Crystal Violet", "protocol": "as §2, §3, §4"}, "[4]": {"test_system": "SKOV3", "test": "Crystal Violet proliferation assay, BAL27862-resistant versus parental SKOV3", "conditions": "for Resistance factor (ratio IC50 BAL27862-resistant cell line variant versus IC50 parental cell line): 72 hours, Crystal Violet", "protocol": "as §2, §3, §4"}, "[5]": {"test_system": "Jurkat", "test": "FACS cell death assay, BAL27862-resistant versus parental Jurkat cells expressing GFP", "protocol": "as §2, with “The resistant sub lines were expanded at the highest tolerated BAL27862 concentration and subsequently frozen and stored in liquid nitrogen.” left out\nJurkat cells stably expressing GFP (green fluorescence protein) were incubated with increasing BAL27862 concentrations in culture medium for 72 hours and then analyzed by FACS (excitation at 488 nm, emission at 525 nm). Dying or dead cells, showing a decreased fluorescence activity in comparison to living cells, were quantified (Green fluorescent protein as a novel tool to measure apoptosis and necrosis. Strebel et al, 2001, Cytometry 43(2): 126-133).\nas §4"}, "[6]": {"test_system": "HeLa cervical cancer cells", "test": "Immunofluorescent staining of microtubules (anti-alpha tubulin)", "conditions": "24 hours, 50 nM BAL27862", "protocol": "as §1"}, "[7]": {"test_system": "SKBR3 breast cancer cells", "test": "Immunofluorescent staining of microtubules (anti-alpha tubulin)", "conditions": "24 hours, 50 nM BAL27862", "protocol": "as §1"}, "[8]": {"test_system": "BAL27862-resistant cells", "test": "Response of BAL27862-resistant lines to other microtubule agents (all lines tested)", "conditions": "all lines tested (Table 1)", "protocol": "as §2\nA549 (2000 cells/well), H460 (1000 cells/well) and SKOV3 (2000 cells/well) cells were seeded in 96 well plates. […] After medium was removed, cells were fixed and stained by adding 50 μl Crystal Violet stain (0.2% Crystal Violet in 50% Methanol) per well. […] Absorbance at 590 nm was measured using a SpectraMax M2e plate reader (Molecular Devices).\nas §4"}}}
{"compound": "N#CCCNc1nonc1-c1nc2ccccc2n1CC(=O)c1ccc(N)nc1", "note": "[Compound C, 3-(4-{1-[2-(6-Amino-pyridin-3-yl)-2-oxo-ethyl]-1H-benzoimidazol-2-yl}-furazan-3-ylamino)-propionitrile]", "values": [{"measurement": "Microtubule phenotype of mitotic or G2/M arrested cells", "setting": "[1]", "result": "dot-like structures"}]}
{"compound": "N#CCCNc1nonc1-c1nc2ccccc2n1CC(=O)c1ccc(N)cc1", "note": "[BAL27862, 3-(4-{1-[2-(4-Amino-phenyl)-2-oxo-ethyl]-1H-benzoimidazol-2-yl}-furazan-3-ylamino)-propionitrile]", "values": [{"measurement": "Resistance factor versus parental line (based on IC50)", "setting": "[2]", "result": 3.0, "unit": "fold"}, {"measurement": "Resistance factor (ratio IC50 BAL27862-resistant cell line variant versus IC50 parental cell line)", "setting": "[2]", "result": 3.0}, {"measurement": "Resistance factor versus parental line (based on IC50)", "setting": "[3]", "result": 5.3, "unit": "fold"}, {"measurement": "Resistance factor (ratio IC50 BAL27862-resistant cell line variant versus IC50 parental cell line)", "setting": "[3]", "result": 5.3}, {"measurement": "Resistance factor versus parental line (based on IC50)", "setting": "[4]; SKOV3 resistant 1", "result": 7.6, "unit": "fold"}, {"measurement": "Resistance factor (ratio IC50 BAL27862-resistant cell line variant versus IC50 parental cell line)", "setting": "[4]; SKOV3 resistant 1", "result": 7.6}, {"measurement": "Resistance factor versus parental line (based on IC50)", "setting": "[4]; SKOV3 resistant 2", "result": 11.6, "unit": "fold"}, {"measurement": "Resistance factor (ratio IC50 BAL27862-resistant cell line variant versus IC50 parental cell line)", "setting": "[4]; SKOV3 resistant 2", "result": 11.6}, {"measurement": "Resistance factor versus parental line (based on EC50)", "setting": "[5]", "result": 22.5, "unit": "fold"}, {"measurement": "Resistance factor (ratio EC50 BAL27862-resistant cell line variant versus EC50 parental cell line)", "setting": "[5]; 72 hours, cell death by FACS", "result": 22.5}, {"measurement": "Microtubule phenotype on combination treatment", "setting": "[1]; 24 hours vinblastine, colchicine, paclitaxel or nocodazole, BAL27862 added for the last 4 hours", "result": "disruption of the microtubule structures"}, {"measurement": "Microtubule phenotype of mitotic or G2/M arrested cells", "setting": "[1]", "result": "dot-like structures"}, {"measurement": "Microtubule phenotype of mitotic or G2/M arrested cells", "setting": "[6]", "result": "dot-like structures"}, {"measurement": "Microtubule phenotype of mitotic or G2/M arrested cells", "setting": "[7]", "result": "dot-like structures"}]}
{"compound": "Nc1ccc(C(=O)Cn2c(-c3nonc3N)nc3ccccc32)cc1", "note": "[Compound B, 2-[2-(4-Amino-furazan-3-yl)-benzoimidazol-1-yl]-1-(4-amino-phenyl)-ethanone]", "values": [{"measurement": "Microtubule phenotype of mitotic or G2/M arrested cells", "setting": "[1]", "result": "dot-like structures"}]}
{"compound": "CC(=O)O[C@H]1C(=O)[C@@]2(C)[C@H]([C@H](OC(=O)c3ccccc3)[C@]3(O)C[C@H](OC(=O)[C@H](O)[C@@H](NC(=O)c4ccccc4)c4ccccc4)C(C)=C1C3(C)C)[C@]1(OC(C)=O)CO[C@@H]1C[C@@H]2O", "note": "[Paclitaxel, paclitaxel]", "values": [{"measurement": "Resistance factor (ratio IC50 BAL27862-resistant cell line variant versus IC50 parental cell line)", "setting": "[2]", "result": 0.06}, {"measurement": "Resistance factor (ratio IC50 BAL27862-resistant cell line variant versus IC50 parental cell line)", "setting": "[3]", "result": 0.3}, {"measurement": "Resistance factor (ratio IC50 BAL27862-resistant cell line variant versus IC50 parental cell line)", "setting": "[4]; SKOV3 resistant 1", "result": 0.4}, {"measurement": "Resistance factor (ratio IC50 BAL27862-resistant cell line variant versus IC50 parental cell line)", "setting": "[4]; SKOV3 resistant 2", "result": 0.5}, {"measurement": "Sensitivity of BAL27862-resistant lines compared to parental lines", "setting": "[8]", "result": "increased sensitivity"}]}
{"compound": "CC[C@]1(O)C[C@@H]2CN(CCc3c([nH]c4ccccc34)[C@@](C(=O)OC)(c3cc4c(cc3OC)N(C)[C@H]3[C@@](O)(C(=O)OC)[C@H](OC(C)=O)[C@]5(CC)C=CCN6CC[C@]43[C@@H]65)C2)C1", "note": "[Vinblastine, vinblastine]", "values": [{"measurement": "Resistance factor (ratio IC50 BAL27862-resistant cell line variant versus IC50 parental cell line)", "setting": "[2]", "result": 2.3}, {"measurement": "Resistance factor (ratio IC50 BAL27862-resistant cell line variant versus IC50 parental cell line)", "setting": "[3]", "result": 4.6}, {"measurement": "Resistance factor (ratio IC50 BAL27862-resistant cell line variant versus IC50 parental cell line)", "setting": "[4]; SKOV3 resistant 1", "result": 15.7}]}
{"compound": "COC(=O)Nc1nc2ccc(C(=O)c3cccs3)cc2[nH]1", "note": "[Nocodazole, nocodazole]", "values": [{"measurement": "Resistance factor (ratio IC50 BAL27862-resistant cell line variant versus IC50 parental cell line)", "setting": "[2]", "result": 1.6}, {"measurement": "Resistance factor (ratio IC50 BAL27862-resistant cell line variant versus IC50 parental cell line)", "setting": "[3]", "result": 1.3}, {"measurement": "Resistance factor (ratio IC50 BAL27862-resistant cell line variant versus IC50 parental cell line)", "setting": "[4]; SKOV3 resistant 1", "result": 3.6}, {"measurement": "Resistance factor (ratio IC50 BAL27862-resistant cell line variant versus IC50 parental cell line)", "setting": "[4]; SKOV3 resistant 2", "result": 3.9}]}
{"compound": "COc1cc2c(c(OC)c1OC)-c1ccc(OC)c(=O)cc1[C@@H](NC(C)=O)CC2", "note": "[Colchicine, colchicine]", "values": [{"measurement": "Resistance factor (ratio IC50 BAL27862-resistant cell line variant versus IC50 parental cell line)", "setting": "[2]", "result": 0.9}, {"measurement": "Resistance factor (ratio IC50 BAL27862-resistant cell line variant versus IC50 parental cell line)", "setting": "[3]", "result": 1.6}, {"measurement": "Resistance factor (ratio IC50 BAL27862-resistant cell line variant versus IC50 parental cell line)", "setting": "[4]; SKOV3 resistant 1", "result": 2.0}, {"measurement": "Resistance factor (ratio IC50 BAL27862-resistant cell line variant versus IC50 parental cell line)", "setting": "[4]; SKOV3 resistant 2", "result": 2.8}]}
